Assay results reported in patent publication US11129782B2, “Derivatives of PPD useful for coloring hair and skin” (National University of Singapore, priority 2017, dated 2021).

Assay: Skin permeation in vertical Franz diffusion cells
Type: in vitro ADME, porcine
How it was run: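 Dermatomed porcine ear skin (~1.0 mm, barrier checked by TEWL) in vertical Franz cells at 37 °C, 0.64 cm^2 area, PBS receptor, donor of 1% w/v solutions in argon-purged water (n=3). Receptor sampled over 8 h with mass balance, LCMS quantification; flux and permeability coefficients from steady-state Fick's law fits.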

Nc1ccc(N)cc1 [PPD, para-phenylenediamine, reference compound]
% Parent compound Penetrated (mean) (1% W/V applied, 8 h): 0.162%
% converted to metabolite (mean) (1% W/V applied, 8 h): 3.17%
Mass balance in the Franz cells (8 h): > 99%
Jss · 10^4 (steady state flux) (mean): 4.3 mg cm^−2 h^−1
tlag (lag time) (mean): 4.2 h
recovery at 8 h, 1 % w/v (pig, 1% W/V applied, 8 h, read-out: % Parent compound Recovery (mean)): 90.3%
Papp at 8 h, 1 % w/v (pig, mean, read-out: kp · 10^5 (steady state permeability coefficient) (converted)): 1190 ×10⁻⁶ cm/s
Dm · 10^4 (diffusion coefficient in skin) (steady state, mean): 5.00 cm^−2 h^−1
Ks/d (skin-donor partition coefficient) (steady state, mean, 1% w/v in water, 8 h): 0.010
